The values below are quoted from earlier work in patent publication US10925995B2, “Absorber and absorbent article using the same” (LIVEDO CORPORATION, priority 2012, dated 2021).

The conditions of this series: in water at 25 degrees centigrade; for acid dissociation constant pKa: no stage stated.

For the compound `NCCCC(=O)O` [4-aminobutyric acid], the “acid dissociation constant pKa” value was 4.03. For `COC(=O)c1ccncc1` [methyl isonicotinate], the “acid dissociation constant pKa” value is 3.26. As to `O=C(O)C(O)c1ccccc1` (stereo not shown) [mandelic acid], the “acid dissociation constant pKa” value is reported as 3.19. Take `O=C(O)[C@H](O)[C@@H](O)C(=O)O` [(R,R)-tartaric acid]: the “acid dissociation constant pKa, second stage” value was 4.44.

As to `O=C(O)CS` [mercaptoacetic acid], the “acid dissociation constant pKa” value is 3.43. Turning to `O=C(O)c1ccc(I)cc1` [p-iodobenzoic acid], the “acid dissociation constant pKa” value is given as 4.00. As to `O=C(O)c1cccc([N+](=O)[O-])c1` [m-nitrobenzoic acid], the “acid dissociation constant pKa” value is 3.45. On to `O=C(O)c1ccc2ccccc2n1` [quinaldic acid], for which the “acid dissociation constant pKa, second stage” value is listed as 4.75. For `C=CCC(=O)O` [vinyl acetic acid], the “acid dissociation constant pKa” value is recorded as 4.12.

Take `O=C(O)c1cccc(I)c1` [m-iodobenzoic acid]: the “acid dissociation constant pKa” value is given as 3.85. As to `O=C(O)/C=C\c1ccccc1` [cinnamic acid (cis)], the “acid dissociation constant pKa” value was 3.88. On to `Nc1ccc(C(=O)O)cc1` [p-aminobenzoic acid], for which the “acid dissociation constant pKa, second stage” value is 4.85. `Nc1ccccc1C(=O)O` [o-aminobenzoic acid]: the “acid dissociation constant pKa, second stage” value was 4.95.

For `O=C(O)CCCl` [3-chloropropionic acid], the “acid dissociation constant pKa” value is 3.92. Consider `Nc1cccc(C(=O)O)c1` [m-aminobenzoic acid], for which the “acid dissociation constant pKa” value is recorded as 3.12. As for `O=C(O)c1ccc([N+](=O)[O-])cc1` [p-nitrobenzoic acid], the “acid dissociation constant pKa” value is 3.44. For `CCCCCCC(=O)O` [heptanoic acid], the “acid dissociation constant pKa” value was 4.66. Turning to `O=C(O)c1ccncc1` [isonicotinic acid], the “acid dissociation constant pKa, second stage” value is listed as 4.87.

With `O=C1O[C@H]([C@@H](O)CO)C(O)=C1O` [L-ascorbic acid], the “acid dissociation constant pKa” value is reported as 4.03. As to `COC(=O)CC(O)(CC(=O)O)C(=O)O` (stereo not shown) [citric acid monomethyl ester], the “acid dissociation constant pKa” value is listed as 4.35. Consider `COc1ccccc1C(=O)O` [o-anisic acid], for which the “acid dissociation constant pKa” value is listed as 4.09. On to `O=C(O)c1cccc(C(=O)O)n1` [2,6-pyridinedicarboxylic acid], for which the “acid dissociation constant pKa, third stage” value (third stage) is listed as 4.68.

Turning to `O=C(O)C1CCCCC1` [cyclohexane carboxylic acid], the “acid dissociation constant pKa” value is 4.70. Turning to `O=C(O)Cc1ccccc1` [phenylacetic acid], the “acid dissociation constant pKa” value is on record as 4.10. As for `O=C(O)CCCCC(=O)O` [adipic acid], the “acid dissociation constant pKa” value was 4.26. For `CCCCCC(=O)O` [hexanoic acid], the “acid dissociation constant pKa” value is 4.63.

As for `O=C(O)CC(O)(CC(=O)O)C(=O)O` [citric acid], the “acid dissociation constant pKa, second stage” value is 4.35. As to `Nc1cccc(S(=O)(=O)O)c1` [m-aniline sulfonic acid], the “acid dissociation constant pKa” value is on record as 3.74. For the compound `O=C(O)c1ccc(Br)cc1` [p-bromobenzoic acid], the “acid dissociation constant pKa” value is on record as 4.00. As for `O=C(O)c1cccc(Br)c1` [m-bromobenzoic acid], the “acid dissociation constant pKa” value is given as 3.81. On to `O=C(O)CCCCCC(=O)O` [pimelic acid], for which the “acid dissociation constant pKa” value is on record as 4.31.

Consider `O=C(O)C(O)C(O)C(=O)O` (stereo not drawn) [d-tartaric acid], for which the “acid dissociation constant pKa, second stage” value is recorded as 3.95.

For `O=C(O)/C=C/C(=O)O` [fumaric acid], the “acid dissociation constant pKa, second stage” value is recorded as 4.10.

`O=C(O)CCCC(=O)O` [glutaric acid]: the “acid dissociation constant pKa” value is given as 4.13. `O=C(O)c1ccccc1C(=O)O` [o-benzenedicarboxylic acid]: the “acid dissociation constant pKa, second stage” value is recorded as 4.93.

For `CCCCC(=O)O` [valeric acid], the “acid dissociation constant pKa” value is on record as 4.64. For the compound `CC(=O)CCC(=O)O` [levulinic acid], the “acid dissociation constant pKa” value is recorded as 4.44. With `C/C=C/C(=O)O` [crotonic acid], the “acid dissociation constant pKa” value was 4.69. As for `Nc1ccc(S(=O)(=O)O)cc1` [p-aniline sulfonic acid], the “acid dissociation constant pKa” value is 3.23. In the case of `N#Cc1ccc(C(=O)O)cc1` [p-cyanobenzoic acid], the “acid dissociation constant pKa” value is on record as 3.55.
